Test results from US12390437B2, “Itaconic acid derivatives and uses thereof intreating an inflammatory disease or a disease associated with an undesirable immune response” (Sitryx Therapeutics Limited, priority 2019, dated 2025).

Legend:
[1] = test system: IL-1β cytokine output from THP-1s; test: THP-1 AlphaLISA IL-1β cytokine assay; type: cell-based, human; details: Homo sapiens, THP-1, PMA-differentiated THP-1 cells, LPS 24 hr then Nigericin 1 hour; read-out: IL-1β (IC50)
How it was run: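 PMA-differentiated (72 h) THP-1 cells pretreated 30 min with compound, LPS-stimulated 24 h, then nigericin 1 h at 37 °C. Supernatant IL-1β and IL-6 by AlphaLISA; % inhibition normalised to ±LPS controls, IC50 from concentration-response curves.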

[2] = test system: IL-6 cytokine output from THP-1s; test: THP-1 AlphaLISA IL-6 cytokine assay; type: cell-based, human; details: Homo sapiens; PMA-differentiated THP-1 cells, LPS 24 hr then Nigericin 1 hour
Procedure: Measuring Inhibitory Effects on IL-1β and IL-6 Cytokine Output from THP-1s
The cytokine inhibition profiles of compounds of formula (IW-1) were determined in a differentiated THP-1 cell assay. All assays were performed in RPMI-1640 growth medium (Gibco), supplemented with 10% fetal bovine serum (FBS; Gibco), 1% penicillin-streptomycin and 1% sodium pyruvate unless specified otherwise. The IL-1β and IL-6 cytokine inhibition assays were each run in a background of differentiated THP-1 cells as described below. All reagents described were from Sigma-Aldrich unless specified otherwise. Compounds were prepared as 10 mM DMSO stocks.
THP-1 cells were expanded as a suspension up to 80% confluence in appropriate growth medium. Cells were harvested, suspended, and treated with an appropriate concentration of phorbol 12-myristate 13-acetate (PMA) over a 72 hr period (37° C./5% CO2).
Following 72 hrs of THP-1 cell incubation, cellular medium was removed and replaced with fresh growth media containing 1% of FBS. Working concentrations of compounds were prepared separately in 10% FBS treated growth medium and pre-incubated with the cells for 30 minutes (37° C./5% CO2). Following the 30 minute compound pre-incubation, THP-1s were treated with an appropriate concentration of LPS and the THP-1s were subsequently incubated for a 24 hr period (37° C./5% CO2). An appropriate final concentration of Nigericin was then dispensed into the THP-1 plates and incubated for 1 hour (37° C./5% CO2) before THP-1 supernatants were harvested and collected in separate polypropylene 96-well holding plates.
Reagents from each of the IL-1β and IL-6 commercial kits (Perkin Elmer) were prepared and run according to the manufacturer's instructions. Subsequently, fluorescence signal detection in a microplate reader was measured (EnVision® Multilabel Reader, Perkin Elmer).
Percentage inhibition was calculated per cytokine by normalising the sample data to the high and low controls used within each plate (+/−LPS respectively). Percentage inhibition was then plotted against compound concentration and the 50% inhibitory concentration (IC50) was determined from the resultant concentration-response curve.

IC50 [1] [µM]	IC50 [2] [µM]	Structure (SMILES)
10.6	6.8	C=C(CC(=O)OCCCCCCCC)C(=O)OCCC(=O)N(CC)CC [Example 109, 1-(3-(diethylamino)-3-oxopropyl) 4-octyl 2-methylenesuccinate]
82.4	47.5	C=C(CC(=O)OCCCCCC)C(=O)OCC(=O)NS(C)(=O)=O [Example 119, 4-hexyl 1-(2-(methylsulfonamido)-2-oxoethyl) 2-methylenesuccinate]
34.2	96.9	C=C(CC(=O)OCC(C)(C)C)C(=O)OCCC(=O)O [Example 83, 3-((2-methylene-4-(neopentyloxy)-4-oxobutanoyl)oxy)propanoic acid]
5.7	4.8	C=C(CC(=O)O[C@@H](C)CCCCCC)C(=O)OC1CS(=O)(=O)C1 [Example 67, (S)-1-(1,1-dioxidothietan-3-yl) 4-(octan-2-yl) 2-methylenesuccinate]
8.5	2.5	C=C(CC(=O)OCCCCCCCC)C(=O)OCCN1CCS(=O)(=O)CC1 [Example 52, 1-(2-(1,1-dioxidothiomorpholino)ethyl) 4-octyl 2-methylenesuccinate]
6.8	5.2	C=C(C(=O)OCCS(C)(=O)=O)C(C)C(=O)OCCCCCCCC (centres unmarked) [Example 138, 4-(2-(methylsulfonyl)ethyl) 1-octyl 2-methyl-3-methylenesuccinate]
100	43.9	C=C(CC(=O)OC1CCCCC1)C(=O)OCC(C)(C)C(=O)O [Example 117, 3-((4-(cyclohexyloxy)-2-methylene-4-oxobutanoyl)oxy)-2,2-dimethylpropanoic acid]
11.3	4.8	C=C(CC(=O)OCCCCCCCC)C(=O)OCC(C)(C)C#N [Example 30, 1-(2-cyano-2-methylpropyl) 4-octyl 2-methylenesuccinate]
31.8	16.1	C=C(CC(=O)OCCCCCCCC)C(=O)OCC(C)(C)OC [Example 34, 1-(2-methoxy-2-methylpropyl) 4-octyl 2-methylenesuccinate]
15	4.2	C=C(CC(=O)OCCCCCCCC)C(=O)O[C@@H]1CCOC1 [Example 24, (R)-4-octyl 1-(tetrahydrofuran-3-yl) 2-methylenesuccinate]
12.9	15.5	C=C(CC(=O)OCCCCCCCC)C(=O)OC(C)COC (centres unmarked) [Example 31, 1-(1-methoxypropan-2-yl) 4-octyl 2-methylenesuccinate]
26.9	7.7	C=C(CC(=O)OCCCCCC)C(=O)OCCC(=O)NS(C)(=O)=O [Example 120]
9.3	5.4	C=C(CC(=O)OCCCCCCCC)C(=O)OCCNS(C)(=O)=O [Example 53, 1-(2-(methylsulfonamido)ethyl) 4-octyl 2-methylenesuccinate]
11.9	13.5	C=C(CC(=O)OCCCCCCCC)C(=O)OC(C)C(=O)O (centres unmarked) [Example 79, 2-((2-methylene-4-(octyloxy)-4-oxobutanoyl)oxy)propanoic acid]
15.4	8.9	C=C(CC(=O)OC)C(=O)OC1COC1 [Example 15, 4-methyl 1-(oxetan-3-yl) 2-methylenesuccinate]
29.3	30.3	C=C(CC(=O)OCCS(=O)(=O)c1ccc(C)cc1)C(=O)OCC(=O)O [Example 97, 2-((2-methylene-4-oxo-4-(2-tosylethoxy)butanoyl)oxy)acetic acid]
3.5	2.8	C=C(CC(=O)OC1CCCCCCC1)C(=O)OC(C)CS(C)(=O)=O (centres unmarked) [Example 62, 4-cyclooctyl 1-(1-(methylsulfonyl)propan-2-yl) 2-methylenesuccinate]

The remaining lines, values behind:

Structure (SMILES)	IC50 [1] [µM]	IC50 [2] [µM]
C=C(CC(=O)OCCCCCCCC)C(=O)OC1CS(=O)(=O)C1 [Example 47, 1-(1,1-dioxidothietan-3-yl) 4-octyl 2-methylenesuccinate]	3.3	3
C=C(CC(=O)OCCCCCCCC)C(=O)OCCN1CCOCC1 [Example 35, 1-(2-morpholinoethyl) 4-octyl 2-methylenesuccinate]	6.7	3.7
C=C(CC(=O)O[C@H](C)CCCCCC)C(=O)OCCN1CCCC1=O [Example 72, (R)-4-(octan-2-yl) 1-(2-(2-oxopyrrolidin-1-yl)ethyl) 2-methylenesuccinate]	11.4	8.2
C=C(CC(=O)OCCCCCCCC)C(=O)OCCN1CCN(C)CC1 [Example 51, 1-(2-(4-methylpiperazin-1-yl)ethyl) 4-octyl 2-methylenesuccinate]	7.3	4
C=C(C(=O)O[C@H]1CCOC1)C(C)C(=O)OCCCCCCCC (stereo partly drawn) [Example 139, 1-octyl 4-((S)-tetrahydrofuran-3-yl) 2-methyl-3-methylenesuccinate]	21.7	15.1
C=C(CC(=O)OCCCCCCCC)C(=O)OC1CC(F)(F)C1 [Example 185, 1-(3,3-difluorocyclobutyl) 4-octyl 2-methylenesuccinate]	21.6	8.8
C=C(CC(=O)OCCCCCCCC)C(=O)OC1(C)COC1 [Example 68, 1-(3-methyloxetan-3-yl) 4-octyl 2-methylenesuccinate]	24	9.1
C=C(CC(=O)OC1CCC1)C(=O)OCC(=O)O [Example 116, 2-((4-cyclobutoxy-2-methylene-4-oxobutanoyl)oxy)acetic acid]	100	60.4
C=C(CC(=O)OCCCCCCCC)C(=O)OCC(=O)N1CCN(C)CC1 [Example 107, 1-(2-(4-methylpiperazin-1-yl)-2-oxoethyl) 4-octyl 2-methylenesuccinate]	10	2.7
C=C(CC(=O)OCCCCCCCC)C(=O)OC(C)OC(C)=O (centres unmarked) [Example 46, 1-(1-acetoxyethyl) 4-octyl 2-methylenesuccinate]	6.7	3
C=C(CC(=O)O[C@H](C)CCCCCC)C(=O)OC1CN(C(C)=O)C1 [Example 58, (R)-1-(1-acetylazetidin-3-yl) 4-(octan-2-yl) 2-methylenesuccinate]	6.5	3.8
C=C(CC(=O)OC1CCCCC1)C(=O)OC1CS(=O)(=O)C1 [Example 60, 4-cyclohexyl 1-(1,1-dioxidothietan-3-yl) 2-methylenesuccinate]	1.9	1.4
C=C(CC(=O)OCCCCCCCC)C(=O)OC1CCN(S(C)(=O)=O)CC1 [Example 28, 1-(1-(methylsulfonyl)piperidin-4-yl) 4-octyl 2-methylenesuccinate]	5.2	2.2
C=C(CC(=O)OC1CCCCCCC1)C(=O)OCCN1CCCC1=O [Example 71, 4-cyclooctyl 1-(2-(2-oxopyrrolidin-1-yl)ethyl) 2-methylenesuccinate]	8.7	9.6
C=C(CC(=O)OC1CCCCC1)C(=O)OCCS(C)(=O)=O [Example 61, 4-cyclohexyl 1-(2-(methylsulfonyl)ethyl) 2-methylenesuccinate]	6.1	5
C=C(CC(=O)OC1CCCCCCC1)C(=O)OC1CN(C(C)=O)C1 [Example 63, 1-(1-acetylazetidin-3-yl) 4-cyclooctyl 2-methylenesuccinate]	1.3	2.5
C=C(CC(=O)OC1CCCCC1)C(=O)OC(C)CS(C)(=O)=O (centres unmarked) [Example 59, 4-cyclohexyl 1-(1-(methylsulfonyl)propan-2-yl) 2-methylenesuccinate]	13.3	8.8
C=C(CC(=O)OCCCCCCCC)C(=O)OCCC(=O)N1CCOCC1 [Example 108, 1-(3-morpholino-3-oxopropyl) 4-octyl 2-methylenesuccinate]	11.1	3.1
C=C(CC(=O)OCC1CCC(F)(F)CC1)C(=O)OCC(=O)O [Example 113, 2-((4-((4,4-difluorocyclohexyl)methoxy)-2-methylene-4-oxobutanoyl)oxy)acetic Acid]	100	48.5
C=C(CC(=O)OCCCCCCCC)C(=O)OCC(=O)OC(C)(C)C [Example 48, 1-(2-(tert-butoxy)-2-oxoethyl) 4-octyl 2-methylenesuccinate]	10.1	5.1
